In test [1] the target is T1, Acetylcholinesterase human (AChE) (Homo sapiens, UniProt P22303).
T1 construct: purchased Sigma-Aldrich (Poznań, Poland)
Briefly: AChE inhibition kinetics, Ellman's method combined with capillary electrophoresis. The settings on record: for Tilt Angle of Lineweaver-Burk line: acetylthiocholine 0.36–46.00 mM, n = 6. The format is biochemical. An excerpt: In this work, we used the combined Ellman’s method with the capillary electrophoresis method developed by us for the determination of 4,4-dithio-bis-acid nitrobenzoic (DBAN) (main enzyme reaction product) in the presence of acetylthiocholine (ACth), 5-thio-2-nitrobenzoic acid (NTB), 5,5′-dithio-bis-2-nitrobenzoic acid (DTNB), acetylcholinesterase (AChE) and inhibitors (I), (II), (III) and (IV) of acetylcholinesterase. For the development of this method, we optimized the buffer pH, separating background electrolyte (BGE) concentration, wavelength, temperature, and voltage. […] All these separation systems were tested to achieve the best separation parameters, resolution, and analysis time for all components in the reaction mixture. […] Separation was carried out at 15 kV. Each sample was added to the capillary under hydrodynamic injection.
The samples were injected under 5 psi pressure for 3 s. The experiments were performed under constant current conditions (85 μA). […] Before the assay, the capillary was conditioned with 0.1 M NaOH for 10 min at 10 psi and with H2O for 10 min at 10 psi. Then, it was electro conditioned with the running buffer for 20 min at +10 kV and pressure-conditioned with the running buffer for 10 min at 10 psi. Before each injection, the capillary was washed with 1 M NaOH for 2 min, then with H2O for 2 min, and finally with BGE for 2 min. At the end of each working day, the capillary was rinsed for 10 min with 0.1 M NaOH, 10 min with BGE, and 10 min with deionized water at 15 psi. Then, the capillary was exposed to air for 10 min at 20 psi and left empty.
Sample mixtures containing 4,4-dithio-bis-acid nitrobenzoic (DBAN) (main enzyme reaction product) in the presence of acetylthiocholine (ACth), 5-thio-2-nitrobenzoic acid (NTB), 5,5′-dithio-bis-2-nitrobenzoic acid (DTNB), acetylcholinesterase (AChE) and inhibitors (I), (II), (III) and (IV) were introduced automatically by pressure injection (with 2 psi pressure for 5 s on the sample solution). At the day’s end, vials with anode and cathode buffer were emptied and running buffer was filled again at the start of the next day before the analysis.
Acetylcholinesterase activity was determined according to the method by Ellman et al. and according to the procedure described by Rosilene R et al. but slightly modified. […] The tubes containing solutions were preincubated for 2 min at 25 °C. Then, 0.1 mL […] AChE was introduced into tubes 1–9, at an interval of 1 min. All 10 samples were incubated for 3 min at 25 °C. After incubation, the analytical samples were introduced into the capillary.
The inhibition constants (Ki) were calculated from the plotted Lineweaver–Burk curves for the four concentrations of the inhibitors (I), (II), (III) and (IV). The method was based on two steps (Figure 8).

The subject of a further test is AChE. The settings on record: model AChE inhibitors; read-out: IC50 (inhibition potency); cited from earlier work.
The mark [2] stands for this setting: inhibitor 0.08 mM, acetylthiocholine 0.36 mM.
The mark [3] stands for this setting: inhibitor 0.08 mM, acetylthiocholine 0.72 mM.
The mark [4] stands for this setting: inhibitor 0.08 mM, acetylthiocholine 1.44 mM.
Where [5] appears, read: inhibitor 0.08 mM, acetylthiocholine 2.88 mM.
Setting [6] is: inhibitor 0.08 mM, acetylthiocholine 5.75 mM.
The mark [7] stands for this setting: inhibitor 0.08 mM, acetylthiocholine 11.50 mM.
[8] abbreviates: inhibitor 0.08 mM, acetylthiocholine 23.00 mM.
[9] abbreviates: inhibitor 0.08 mM, acetylthiocholine 34.50 mM.
[10] abbreviates: inhibitor 0.08 mM, acetylthiocholine 46.00 mM.

T1 sequence (P22303 32-614): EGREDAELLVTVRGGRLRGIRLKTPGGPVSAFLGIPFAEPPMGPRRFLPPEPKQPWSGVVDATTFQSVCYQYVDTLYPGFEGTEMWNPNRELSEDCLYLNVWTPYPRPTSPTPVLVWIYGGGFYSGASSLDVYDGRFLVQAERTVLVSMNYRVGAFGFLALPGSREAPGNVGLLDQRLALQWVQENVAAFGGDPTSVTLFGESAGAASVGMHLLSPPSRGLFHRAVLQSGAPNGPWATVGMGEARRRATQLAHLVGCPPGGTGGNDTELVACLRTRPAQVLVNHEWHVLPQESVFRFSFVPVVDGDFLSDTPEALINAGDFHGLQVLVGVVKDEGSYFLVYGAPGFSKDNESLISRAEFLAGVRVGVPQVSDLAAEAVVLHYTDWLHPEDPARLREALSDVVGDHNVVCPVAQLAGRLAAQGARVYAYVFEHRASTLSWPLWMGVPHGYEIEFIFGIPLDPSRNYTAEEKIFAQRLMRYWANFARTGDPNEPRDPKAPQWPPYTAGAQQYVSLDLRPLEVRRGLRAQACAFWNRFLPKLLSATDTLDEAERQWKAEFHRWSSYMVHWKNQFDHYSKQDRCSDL

The term IC50 denotes the concentration needed to halve the response being measured. Broadly, the Vmax is the rate approached at saturating substrate. With `CN(C)CC(O)CN1C(=O)C2C(C1=O)C1(C)C(=O)C2(C)C(c2ccccc2)=C1c1ccccc1` (stereo not drawn) [Compound (IV)], in test [1] (from Lineweaver-Burk plots, Km and Vmax), the “type of AChE inhibition” value is “competitive”. In test [1] (from activity (%) versus inhibitor concentration plots), the IC50 turned out to be 35 ± 1 µM. Also, the maximal velocity (Vmax) in test [1] (inhibitor 0.01 mM) is reported as 0.63 ± 0.02 mM/min; in test [1] (inhibitor 0.02 mM), 0.63 ± 0.02 mM/min; in test [1] (inhibitor 0.04 mM), 0.64 ± 0.03 mM/min; in test [1] (inhibitor 0.06 mM) it was 0.63 ± 0.01 mM/min; in test [1] (inhibitor 0.08 mM), 0.64 ± 0.03 mM/min. Further, the “Tilt Angle of Lineweaver-Burk line” value in test [1] (inhibitor 0.01 mM) is on record as 59.58 ± 0.04 °; in test [1] (inhibitor 0.02 mM) it was 60.09 ± 0.04 °; in test [1] (inhibitor 0.04 mM) it was 65.58 ± 0.03 °; in test [1] (inhibitor 0.06 mM), 69.76 ± 0.03 °; in test [1] (inhibitor 0.08 mM) it was 70.40 ± 0.03 °. The “1/Vo, mean” value in test [1] (setting [2]) is reported as 9.85 min/mM; in test [1] (setting [3]), 5.40 min/mM; in test [1] (setting [4]) it was 3.50 min/mM; in test [1] (setting [5]), 2.30 min/mM; in test [1] (setting [6]), 2.05 min/mM; in test [1] (setting [7]), 1.80 min/mM. For the same compound, the “1/Vo, mean” value in test [1] (setting [8]) came out at 1.70 min/mM; in test [1] (setting [9]), 1.55 min/mM; in test [1] (setting [10]), 1.50 min/mM. Also, the “Peak area of product (4,4-dithio-bis-acid nitrobenzoic), mean” value is given as 45817 in test [1] (setting [2]); 84020 in test [1] (setting [3]); 118587 in test [1] (setting [4]); 157575 in test [1] (setting [5]); 190708 in test [1] (setting [6]); 212913 in test [1] (setting [7]). The “Peak area of product (4,4-dithio-bis-acid nitrobenzoic), mean” value was determined as 228126 in test [1] (setting [8]), 230596 in test [1] (setting [9]) and 231671 in test [1] (setting [10]). Moreover, the “V0 (reaction speed), mean” value in test [1] (setting [2]) amounted to 0.10 mM/min; in test [1] (setting [3]) it was 0.19 mM/min; in test [1] (setting [4]) it was 0.29 mM/min; in test [1] (setting [5]), 0.43 mM/min; in test [1] (setting [6]) it was 0.49 mM/min; in test [1] (setting [7]), 0.56 mM/min. The “V0 (reaction speed), mean” value in test [1] (setting [8]) is on record as 0.59 mM/min; in test [1] (setting [9]) it was 0.65 mM/min; in test [1] (setting [10]) it was 0.65 mM/min. In addition, the “amount of 4,4-dithio-bis-acid nitrobenzoic (DBAN) product in the presence of inhibitor” value in test [1] (inhibitor 0.08 mM, acetylthiocholine 1.44 mM, 0.66 mM without inhibitors) stood at 0.48 mM.
In the case of `CNC(=O)Oc1ccc2c(c1)[C@]1(C)CCN(C)[C@@H]1N2C` [Physostigmine], in the test with AChE, the concentration for half-maximal inhibition (IC50) is […].
Turning to `CCN(C)C(=O)Oc1cccc([C@H](C)N(C)C)c1` [Rivastigmine], in the test on AChE, the IC50 was […].

Values taken from publication PMC8745342, “In Vitro and In Silico Kinetic Studies of Patented 1,7-diEthyl and 1,7-diMethyl Aminoalkanol Derivatives as New Inhibitors of Acetylcholinesterase” (International Journal of Molecular Sciences, 2021).
